Test results as given in US6087336A, “Peptide derivatives useful in treating autoimmune diseases” (Zeneca Limited, priority 1996, dated 2000).

How the values were obtained:
[1] = test system: BALB/C mice; assay: Test C: peptide stimulated DTH (delayed type hypersensitivity) in BALB/C mice; type: in vivo; details: DTH to ovalbumin, 3-day osmotic mini-pumps
Procedure: Test C: Peptide stimulated DTH (delayed type hypersensitivity) in BALB/C mice. […] Balbic female mice (18-20g), 5 per group, were immunised sub-cutaneously on the flank with 0.1 ml of an emulsion of ovalbumin (Sigma) (2mg/ml in saline) mixed 1:1 (v/v) with complete Freunds adjurant (Sigma). Seven days later footpad thickness was detemined using a dual caliper micrometer followed by a challenge in one hind footpad with a 30 μl sub-plantar injection of 1% heat-aggregated ovalbumin protein in saline. Twenty-four hours after antigen challenge, footpads were measured and the DTH response calculated as the percentage increase in footpad thickness in the injected footpad compared to contralateral control. Inhibitors were adminstered by 3-day osmotic mini-pumps (Alzet) implanted 24 hours prior to antigen challenge at doses ranging from 10 mg/kg/day to 0.1 μg/kg/day. The degree of inhibition was calculated by substracting the value for swelling of inhibitor treated footpads from that of the vehicle dosed controls, dividing by the control value and multiplying by 100%.

[2] = type: physicochemical
Procedure: Degradation of Dettide on in vitro release from an extruded polymer depot
A solution of McIlvaine's citric acid-phosphate buffer solution at pH 7.6 containing 0.02% sodium azide, is filtered through a 0.22 μfilter and stored at 4° C. Approximately 10 mg of extruded polymer depot containing peptide is placed in two small vials and 2 ml of the buffer solution added. The vials are then capped and stored in a water bath at 37° C. for a month. At suitable time points over a month, three 0.6ml aliquots of release medium are removed from each vial and either analysed by HPLC or stored frozen in an HPLC vial at -18° C. prior to analysis by HPLC. 1.8 ml of the buffer solution is added to each vial containing the depot to replace the release medium that has been removed at each time point.
The average amount of intact peptide in the release medium at each time point is determined by HPLC using duplicate sample injections by comparing the area of the peptide peak in the release media with the area of the peptide peak from standard buffer solutions of peptide at known concentrations. The approximate average amount of peptide degradation products in the release media at each time point is determined by HPLC by comparing the area of additional new peaks in the release media with the area of the peptide peak from standard buffer solutions of peptide at known concentrations and assuming the extinction coefficient has not changed. The average cumulative in vitro release profile of intact peptide and total peptide (intact peptide and peptide degradation products) is determined from the amounts of intact peptide and peptide degradation products in the release medium at each time point. Preferred peptides of the present invention show minimal degradation on in vitro release and thus show total peptide degradation products of less than 10% and preferably less than 5% of total peptide after a month of in vitro release into Mcllvaine's buffer solution at pH 7.6 at 37° C.

[3] = molecular target: T1, HLA-DR4Dw4 (Homo sapiens, UniProt P01903+P01911, A100K/A169T/F76Y/I96L/K127E/L162R/M171V/N62H/P40V/Q125Y/R42H/S133A/S149N/S66Y/V115G/V209L/W38E); assay: Test A: purified HLA-DR peptide in vitro binding assay; details: purified HLA-DR4Dw4, biotin-FHA307-320
T1 construct: a cDNA encoding the β chain is cloned into the transfer vector pAcUW1; made in house; host or cells: Sf21 insect cells, double-recombinant baculovirus
Procedure: Test A: Purified HLA-DR peptide in vitro binding assay. […]. At the end of the incubation period 100 μl of the incubate is transferred to Enzyme Linked lmmunoSorbant Assay (ELISA) plates (Nunc) previously coated with an anti-MHC antibody (L243--American Type Culture Collection (ATCC) HB55 --as described in Lampson and Levy (1980) J. Immunol. 125, 293-299) at a concentration of 10 μg/ml for 1 hour at room temperature and blocked thereafter for 1 hour with 1% bovine serum albumin (BSA) in PBS and 0.05% Tween 20. After a further 1 hour period the unbound peptide is washed away and a 1/4,000 dilution of streptavidin peroxidase (Sigma) in PBS with 0.01% of a suitable detergent such as NP40 (Sigma) added for 2 hours at room temperature. After further washing, tetramethylbenzidene (TMB) substrate solution (1 TMB tablet (Sigma) in 10 mIs of 0.1 M citrate/acetate buffer, pH 6.0 with 36 μl urea hydrogen peroxide (UHPO) (Fluka)) is added to each of the plates. The reaction is stopped by adding 2M sulphuric acid (10 μl per well) and the absorbance read at 450 nm to quantify the amount of peptide bound. The inhibitory activity of peptides is obtained by plotting absorbance against concentration.
The purified HLA-DR4Dw4 may be obtained as follows:
(i) Expression of HLA-DR in the Baculovirus System
The expression of recombinant proteins in insect cells from baculovirus vectors is an established procedure to obtain high yields of recombinant protein [Luckow, V A & Summers, M D, 1988, Biotechnology, 6, 47-551]. To enable the expression of the heterodimeric HLA-DR, eg. HLA-DR4Dw4, from a single recombinant baculovirus vector (as opposed to having separate recombinant viruses for the α and β chains and then doing a co-infection), a double-recombinant baculovirus is constructed which carries both the α and β chains.
A cDNA encoding the sequence of the α polypeptide is cloned into the transfer vector pacYM1 [Matsuura, Y; Possee, R D; Overton, H A & Bishop, D H L, 1987, J. Gen. […] The molecular genetic techniques used to construct the recombinant vectors are likewise readily available in the literature and are most fully described by Sambrook, J; Fritsch, E F & Maniatis T, (1989) [Molecular Cloning. […]
To create the double-recombinant baculovirus, a cDNA encoding the β chain is cloned into the transfer vector pAcUW1 [Weyer, U; Knight, S & Possee, R D, 1990, J. Gen. […] Double-recombinant viruses are detected by spotting insect cells, infected with randomly picked viruses from the transfection, onto membranes and reacting them with a monoclonal antibody, e.g. L243, which specifically recognises the HLA-DR heterodimer. Binding of the antibody to Sf21 insect cells is detected using standard flow cytometry techniques, readily available in the literature. […]

| Substance | dose at which active in Test C [1] | degradation on release from depot formulation [2] | concentration showing significant binding to HLA-DR4Dw4 in Test A [3] |
| --- | --- | --- | --- |
| Phv-Ala-Arg-Ala-IIb-Ala-Arg-Ala-Papa-NH2 [Example 23] | < 0.1 mg/kg/day | minimal degradation on release | < 0.1 µM |
| Phv-Arg-Ala-Ala-Ala-Val-IIb-Ala-Pip-NH2 [Example 5] | < 0.1 mg/kg/day | minimal degradation on release | < 0.1 µM |
| Phv-Gap(Me)4 -Ala-Ala-Ala-Thr-IIb-Ala-Papa-NH2 [Example 16] | < 0.1 mg/kg/day | minimal degradation on release | < 0.1 µM |
